Data as given in patent US20210386813A1, “COMPOSITION FOR TREATING OVERWEIGHT AND/OR OBESITY” (NEXIRA, priority 2018, published 2021).
Marks after values point to notes of the source that are not given here.

Tests used:
adipocytes = assay: Lipolysis study of mature adipocytes (glycerol and NEFA release); assay type: cell-based; conditions: human adipocytes, 2 h at 37° C.; forskolin 1 μM, isoproterenol 0.1 μM; 100 = Base control
Description: The quantification of the production of glycerol is performed by means of the Glycerol Assay Kit test kit available from Randox under the reference GY105.
The quantification of the production of non-esterified fatty acids is performed by the NEFA HR2—RI Set, NEFA HR2—R2 Set and NEFA Standard test kits available from Fujifilm Wako Chemicals Europe under the respective references 434-91795, 436-91995 and 270-77000.
Each of these kits is based on the production of a colored compound. Thus, the respective concentrations of glycerol and non-esterified fatty acids are determined by means of optical absorbance measurements, and the comparison of these measurements with known absorbance ranges for glycerol and non-esterified fatty acid concentrations. The values are normalized by DNA quantification by means of the Quant-iT® PicoGreen® (Invitrogen®) kit available from ThermoFisher Scientific under the reference P7589.
Adipocytes coming from humans are used for the lipolysis study.
The adipocytes are prepared from subcutaneous adipose tissue digested by collagenase followed by a low centrifugation.
The adipocytes are incubated in a Krebs-Ringer bicarbonate (KRB) buffer solution, sometimes containing basolateral medium of caco-2 cells exposed with, either predetermined concentrations of extract(s) (at a rate of one 1:8 dilution each), or with reference products. The incubation time is 2 h at a temperature of 37° C. The cell culture medium is subsequently harvested and frozen at a temperature of −20° C. for use in the glycerol and NEFA tests. The adipocytes are also harvested for the DNA quantification.
Forskolin (1 μM, available from Sigma-Aldrich under the reference F6886) and isoproterenol (0.1 μM, available from Sigma-Aldrich under the reference 16504) are used as lipolysis activators.
The results are expressed in percentages in relation to the results obtained for respective BM media without extracts. The statistical analyses are performed by placing the BM environments comprising the extracts in relation with the respective BM environments without extracts.

UCP1 = assay: Adipose tissue phenotypic orientation (thermogenesis) study, UCP1 expression by immunofluorescence; assay type: cell-based; conditions: human preadipocytes; GW9662; relative to differentiated cells
Description: The Applicant evaluated the effects of a multitude of bioavailable plant extracts, as well as the effects of the combination of these extracts, on the differentiation of preadipocytes or adipocytes into beige adipocytes. More generally the Applicant evaluated the orientation of a white phenotype towards a beige phenotype.
Preadipocytes coming from humans are used for the cellular differentiation study. The three donors are those of the cytotoxicity study (I) above.
(§1) The preadipocytes are isolated by digestion and centrifugation in accordance with the protocol described for the cytotoxicity study (I) above. The preadipocytes are spread at high density on microtiter plate 96 and cultivated according to the protocol described for the lipid accumulation study (II). The placing in contact with the basolateral medium is performed according to the protocol described for the lipid accumulation study (II).
After the culture, the differentiated cells are fixed with a 4% paraformaldehyde solution then colored with an anti-UCP1 fluorescent antibody available from Sigma-Aldrich under the reference U6382. […]
The quantification is based on fluorescence intensity measurements on images. […]
Fluorescence microphotographs are performed to quantify the UCP1 expression. […]

preadipocytes [1] = assay: Preadipocyte differentiation and lipid accumulation (adipogenesis) study, BODIPY fluorescence; assay type: cell-based; conditions: human preadipocytes; GW9662 0.1 μM; relative to differentiated cells
Description: In practice, the effects of the bioavailable extracts on the lipid accumulation are studied by measuring the accumulation of lipid droplets in the differentiated preadipocytes, that is to say in the adipocytes. The measurement is optical and is performed by fluorescence.
Preadipocytes coming from humans are used for the lipid accumulation study.
The three adipose tissue donors are adult females undergoing a cosmetic or reconstructive surgery intervention.
The preadipocytes are isolated by digestion and centrifugation in accordance with the protocol described for the cytotoxicity study (I) above. […]
The quantification is based on fluorescence intensity measurements on images. The acquisition and the processing of images includes particularly: • the acquisition of microphotographs with a video microscope using the so-called Apotome technology (7 micrographs per well, 3 wells per processing condition); • the quantification of the lipid accumulation by the treatment and the image analysis of the ImageJ software developed by National Institutes of Health (NIH); • the determination of the number of nuclei by means of a shape detection and shape sorting algorithm based on the nucleus size and the circularity of the nucleus; • the connection between the fluorescence detected and the number of nuclei. […]
Fluorescence microphotographs are performed to quantify the lipid accumulation (Bodipy®). […]

[2] = system: differentiated preadipocytes; assay: Adipose tissue energy metabolism study, ATP production (Mitochondrial ToxGlo); assay type: cell-based, human; conditions: differentiated cells; rotenone 400 nM, 2 hours
Description: In order to study the energy metabolism, the ATP production is measured in the differentiated preadipocytes. This provides information on the presence of mitochondria and their activity. Here, the Mitochondrial ToxGlo® test available from Promega under the reference G8000 is used.
The test includes placing preadipocytes in contact with an ATP detection reagent. […] The ATP detection reagent comprises luciferin, ATPase inhibitors and Ultra-Glo® thermostable luciferase. The values are normalized with a DAPI quantification. The Normalization is carried out exclusively in relation to the basolateral medium.
Preadipocytes coming from humans are used for the energy metabolism study. The three donors are those of the cytotoxicity study (I) above.
as §1
The quantification of the ATP synthesis is performed on differentiated cells.
The basolateral medium (BM) comprising the bioavailable extracts of the Caco-2 cell system is harvested for the test. […]

preadipocytes [3] = assay: Cytotoxicity study of bioavailable plant extracts on human preadipocytes (LDH release, CytoTox 96); assay type: cell-based; conditions: relative to FBS 1% base control, 0.2% triton
Description: The analysis of the damage of cell membranes is performed with the CytoTox 96® Non-Radioactive Cytotoxicity Assay kit available from Promega under the reference G1780. This test is based on the principle that cells having a damaged cell membrane release […] (LDH) into the culture medium. LDH is measured by supplying in the medium lactate, oxidized nicotinamide adenine dinucleotide (NAD+) and iodonitrotetrazolium purple as substrates in presence of diaphorase. Red formazan is then created. The red formazan is proportional to the LDH released by the cells. The Applicant evaluated the cytotoxic effects of a multitude of bioavailable plant extracts, as well as the cytotoxic effects of the combination of these extracts, on preadipocytes coming from various donors. The cytotoxic effects of bioavailable plant extracts and their combinations was evaluated on preadipocytes. […] An extract is considered as cytotoxic if the LDH level measured is greater than or equal to 20% in relation to the LDH level measured with the control extract. […] The results are expressed in percentages in relation to the control extract; except for the LDH test, for which the results are expressed as percentages of the cell lysis control (average+/− SEM), which represents the positive control for the cytotoxicity (the control is fixed at 100%). […]

preadipocytes [4] = assay: Cellular viability / mitochondrial activity (MTS formazan, Cell Titer 96 AQueous One); assay type: cell-based; conditions: human preadipocytes; relative to FBS 1% base control; 0.2% triton
Description: The cytotoxic effects of bioavailable plant extracts and their combinations was evaluated on preadipocytes. Two technical approaches were implemented: • the evaluation of the cellular viability by the measurement of the production of formazan by active (therefore living) cells; and • the analysis of the damage of cell membranes by the measurement of lactate dehydrogenase (LDH) in the cell culture medium.
The evaluation of the cellular viability is performed with the Cell Titer 96® AQueous One Solution Cell Proliferation Assay test kit available from Promega under the reference G3580.
In this test, the compound MTS-tetrazolium (3-(4,5-dimethylthiazol-2-yl)-5-(3-carboxymethoxyphenyl)-2-(4-sulfophenyl)-2H-tetrazolium) is transformed by active (living) cells in a culture medium in colored formazan. The transformation of MTS-tetrazolium is performed by the mitochondria in the cells. Formazan is soluble in the culture medium. The quantity of formazan is directly proportional to the number of living cells and may be measured by spectrophotometry (absorbance).
In practice, the cellular viability test is therefore based on the mitochondrial activity of the cells.
As a result, the viability study may provide precious information for the energy metabolism study (IV). […]
The cellular viability is measured directly in the wells of the microtiter plate. […]

With `C=C[C@@]1(C)CC(=O)[C@]2(O)[C@@]3(C)[C@@H](O)CCC(C)(C)[C@@H]3[C@H](O)[C@H](OC(C)=O)[C@@]2(C)O1` [Forskolin] the “Glycerol % Differentiated” value (adipocytes) was 151.62** % Differentiated and the “NEFA % Differentiated” value (adipocytes) was 179.70** % Differentiated.
`O=C(Nc1ccccc1)c1cc([N+](=O)[O-])ccc1Cl` [GW9662] was tested, and the “UCP1 expression (total cell normalization) % Differentiated” value (UCP1) was 83.38 % Differentiated and the “Lipid accumulation % Differentiated” value (preadipocytes [1]) was 30.59* % Differentiated.
`CC(C)NCC(O)c1ccc(O)c(O)c1` (stereo not drawn) [Isoproterenol] was tested, and the “Glycerol % Differentiated” value (adipocytes) was 213.97** % Differentiated and the “NEFA % Differentiated” value (adipocytes) was 241.48** % Differentiated.
With `C=C(C)[C@H]1Cc2c(ccc3c2O[C@@H]2COc4cc(OC)c(OC)cc4[C@@H]2C3=O)O1` [Rotenone, rotenone] the “ATP production % Differentiated” value [2] was 27.95** % Differentiated.
In the case of triton [Lysis control], the “Cytotoxicity % Base control (release of LDH)” value (preadipocytes [3]) is reported as 1,252.05** % Base control and the “Mitochondrial Activity (viability) % Base control” value (preadipocytes [4]) is reported as 23.78** % Base control.
